Tests used:
physchem = assay: physchem
Source text: The exact method for determining this is described hereinafter.
The method of solubility used to determine the data in Table I, is described in the Analytical Methods section below.

[1] = Bioavailability of calcium citrate malate (statement); details: even under neutral conditions

Compound	solubility (physchem)	bioavailability [1]
O=C(O)CC(O)C(=O)O (racemic) [calcium malate]	660 mg/mL	–
calcium citrate malate	–	bioavailable
